# Measurements: the supplement of paper PMC10307832
# Experiments:
# Assay in all cases: relative viability (nuclei count vs DMSO), 5 days (fraction); higher = more cells survive
# [1] = compound: OCc1c[nH]c2ccccc12 [Indole-3-carbinol] + CC(=O)Nc1cccc(-n2c(=O)n(C3CC3)c(=O)c3c(Nc4ccc(I)cc4F)n(C)c(=O)c(C)c32)c1 [Trametinib] (partner 0.02 µM)
# Procedure, shortened: (§1)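 Values are medians from duplicate plates. Each reflects relative viability, defined as the nuclei count of treated wells over that of vehicle wells. Lung cancer cell lines in 1536-well plates were pin-tool dosed one day after seeding with one drug alone or with a fixed anchor-drug dose plus five library-drug doses (not always all listed) in √10 steps, then fixed, stained and imaged at 4× after 5 days.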
# [2] = compound: OCc1c[nH]c2ccccc12 [Indole-3-carbinol] + CCNC(=O)c1noc(-c2cc(C(C)C)c(O)cc2O)c1-c1ccc(CN2CCOCC2)cc1 [Luminespib] (partner 0.01 µM)
# Procedure, shortened: as §1
# [3] = compound: OCc1c[nH]c2ccccc12 [Indole-3-carbinol] + COc1cccc2cc(-c3nc([C@H]4CC[C@H](C(=O)O)CC4)n4ncnc(N)c34)[nH]c12 [OSI-027] (partner 0.5 µM)
# Procedure, shortened: as §1
# [4] = compound: OCc1c[nH]c2ccccc12 [Indole-3-carbinol] + NC(=O)Nc1cc(-c2cccc(F)c2)sc1C(=O)N[C@H]1CCCNC1 [AZD7762] (partner 0.2 µM)
# Procedure, shortened: as §1
# [5] = compound: OCc1c[nH]c2ccccc12 [Indole-3-carbinol] + O=C(CCCCCCC(=O)Nc1ccccc1)NO [Vorinostat] (partner 1 µM)
# Procedure, shortened: as §1
cell line,measurement,setting,value
NCI-H2085,relative viability,[1]; first compound 0.253 µM,0.884
same,relative viability,[1]; first compound 0.8 µM,0.514
same,relative viability,[1]; first compound 2.53 µM,0.56
same,relative viability,[1]; first compound 8 µM,0.622
same,relative viability,[2]; first compound 0.253 µM,0.456
same,relative viability,[2]; first compound 0.8 µM,0.429
same,relative viability,[2]; first compound 2.53 µM,0.395
same,relative viability,[2]; first compound 8 µM,0.498
same,relative viability,[3]; first compound 0.253 µM,0.76
same,relative viability,[3]; first compound 0.8 µM,0.884
same,relative viability,[3]; first compound 2.53 µM,0.747
same,relative viability,[3]; first compound 8 µM,0.684
same,relative viability,[4]; first compound 0.253 µM,0.965
same,relative viability,[4]; first compound 0.8 µM,1.01
same,relative viability,[4]; first compound 2.53 µM,1.05
same,relative viability,[4]; first compound 8 µM,0.893
same,relative viability,[5]; first compound 0.253 µM,0.867
same,relative viability,[5]; first compound 0.8 µM,0.751
same,relative viability,[5]; first compound 2.53 µM,0.753
same,relative viability,[5]; first compound 8 µM,0.687
NCI-H2087,relative viability,[1]; first compound 0.253 µM,0.179
same,relative viability,[1]; first compound 0.8 µM,0.23
same,relative viability,[1]; first compound 2.53 µM,0.193
same,relative viability,[1]; first compound 8 µM,0.201
same,relative viability,[2]; first compound 0.253 µM,0.119
same,relative viability,[2]; first compound 0.8 µM,0.194
same,relative viability,[2]; first compound 2.53 µM,0.177
same,relative viability,[2]; first compound 8 µM,0.172
same,relative viability,[3]; first compound 0.253 µM,0.435
same,relative viability,[3]; first compound 0.8 µM,0.644
same,relative viability,[3]; first compound 2.53 µM,0.571
same,relative viability,[3]; first compound 8 µM,0.513
same,relative viability,[4]; first compound 0.253 µM,1.31
same,relative viability,[4]; first compound 0.8 µM,1.46
same,relative viability,[4]; first compound 2.53 µM,1.33
same,relative viability,[4]; first compound 8 µM,1.15
same,relative viability,[5]; first compound 0.253 µM,0.837
same,relative viability,[5]; first compound 0.8 µM,1.09
same,relative viability,[5]; first compound 2.53 µM,0.86
same,relative viability,[5]; first compound 8 µM,0.655
NCI-H2126,relative viability,[1]; first compound 0.253 µM,0.573
same,relative viability,[1]; first compound 0.8 µM,0.577
same,relative viability,[1]; first compound 2.53 µM,0.541
same,relative viability,[1]; first compound 8 µM,0.509
same,relative viability,[2]; first compound 0.253 µM,0.887
same,relative viability,[2]; first compound 0.8 µM,0.876
same,relative viability,[2]; first compound 2.53 µM,0.992
same,relative viability,[2]; first compound 8 µM,0.851
same,relative viability,[3]; first compound 0.253 µM,0.706
same,relative viability,[3]; first compound 0.8 µM,0.745
same,relative viability,[3]; first compound 2.53 µM,0.65
same,relative viability,[3]; first compound 8 µM,0.791
same,relative viability,[4]; first compound 0.253 µM,0.999
same,relative viability,[4]; first compound 0.8 µM,1.08
same,relative viability,[4]; first compound 2.53 µM,1.02
same,relative viability,[4]; first compound 8 µM,1.01
same,relative viability,[5]; first compound 0.253 µM,0.734
same,relative viability,[5]; first compound 0.8 µM,0.834
same,relative viability,[5]; first compound 2.53 µM,0.718
same,relative viability,[5]; first compound 8 µM,0.752
NCI-H2170,relative viability,[1]; first compound 0.253 µM,0.882
same,relative viability,[1]; first compound 0.8 µM,0.859
same,relative viability,[1]; first compound 2.53 µM,0.892
same,relative viability,[1]; first compound 8 µM,0.869
same,relative viability,[2]; first compound 0.253 µM,0.74
same,relative viability,[2]; first compound 0.8 µM,0.665
same,relative viability,[2]; first compound 2.53 µM,0.841
same,relative viability,[2]; first compound 8 µM,0.624
same,relative viability,[3]; first compound 0.253 µM,0.702
same,relative viability,[3]; first compound 0.8 µM,0.815
same,relative viability,[3]; first compound 2.53 µM,0.749
same,relative viability,[3]; first compound 8 µM,0.671
same,relative viability,[4]; first compound 0.253 µM,1.01
same,relative viability,[4]; first compound 0.8 µM,0.898
same,relative viability,[4]; first compound 2.53 µM,0.89
same,relative viability,[4]; first compound 8 µM,0.894
same,relative viability,[5]; first compound 0.253 µM,0.906
same,relative viability,[5]; first compound 0.8 µM,0.832
same,relative viability,[5]; first compound 2.53 µM,0.851
same,relative viability,[5]; first compound 8 µM,0.778
NCI-H2342,relative viability,[1]; first compound 0.253 µM,0.824
same,relative viability,[1]; first compound 0.8 µM,0.931
same,relative viability,[1]; first compound 2.53 µM,0.866
same,relative viability,[1]; first compound 8 µM,0.764
same,relative viability,[2]; first compound 0.253 µM,0.867
same,relative viability,[2]; first compound 0.8 µM,0.759
same,relative viability,[2]; first compound 2.53 µM,0.752
same,relative viability,[2]; first compound 8 µM,0.74
same,relative viability,[3]; first compound 0.253 µM,0.605
same,relative viability,[3]; first compound 0.8 µM,0.585
same,relative viability,[3]; first compound 2.53 µM,0.569
same,relative viability,[3]; first compound 8 µM,0.572
same,relative viability,[4]; first compound 0.253 µM,0.576
same,relative viability,[4]; first compound 0.8 µM,0.455
same,relative viability,[4]; first compound 2.53 µM,0.456
same,relative viability,[4]; first compound 8 µM,0.453
same,relative viability,[5]; first compound 0.253 µM,0.802
same,relative viability,[5]; first compound 0.8 µM,0.743
same,relative viability,[5]; first compound 2.53 µM,0.903
same,relative viability,[5]; first compound 8 µM,0.712
NCI-H2347,relative viability,[1]; first compound 0.253 µM,0.422
same,relative viability,[1]; first compound 0.8 µM,0.276
same,relative viability,[1]; first compound 2.53 µM,0.296
same,relative viability,[1]; first compound 8 µM,0.29
same,relative viability,[2]; first compound 0.253 µM,0.609
same,relative viability,[2]; first compound 0.8 µM,0.215
same,relative viability,[2]; first compound 2.53 µM,0.425
same,relative viability,[2]; first compound 8 µM,0.59
same,relative viability,[3]; first compound 0.253 µM,0.429
same,relative viability,[3]; first compound 0.8 µM,0.374
same,relative viability,[3]; first compound 2.53 µM,0.287
same,relative viability,[3]; first compound 8 µM,0.364
same,relative viability,[4]; first compound 0.253 µM,0.936
same,relative viability,[4]; first compound 0.8 µM,0.676
same,relative viability,[4]; first compound 2.53 µM,0.702
same,relative viability,[4]; first compound 8 µM,0.765
same,relative viability,[5]; first compound 0.253 µM,0.521
same,relative viability,[5]; first compound 0.8 µM,0.638
same,relative viability,[5]; first compound 2.53 µM,0.526
same,relative viability,[5]; first compound 8 µM,0.506
